Data reported in patent publication US20060084135A1, “Compositions for manipulating the lifespan and stress response of cells and organisms” (priority 2003, published 2006).
Like-named read-outs stand apart in the source and are kept apart here. Blank lines part the entries; values can stand above or below the compound they belong to.

Legend:
[1] = Stability in solution (decay of SIRT1 fold-stimulation of aged stock); assay type: physicochemical; details: ethanol stock solution; ethanol stock 2.5 mM, room temperature, glass vials, nitrogen; assayed at 50 μM; read-out: Stability in Solution t1/2 (converted)
Source text: The fold-stimulation (ratio to control) obtained with a compound diluted from an aged stock solution was compared to an identical dilution from a stock solution freshly prepared from the solid compound. “t1/2” is defined as the time required for the SIRT1 fold-stimulation of the compound from the aged solution to decay to one-half of that obtained from a freshly prepared solution. […] Stocks were aged by storage at room […] temperature, in glass vials, under a nitrogen atmosphere.

S. cerevisiae = assay: Yeast replicative lifespan; assay type: cell-based; details: 10 μM; for % change in yeast replicative lifespan relative to untreated organisms: 2% glucose YPD, untreated = 100%; for Effect on maximum lifespan / Increase of average lifespan / Effect on lifespan: wild type
Experimental: Average lifespan was determined for wild type untreated (□), quercetin (◯) and piceatannol (●).

recombinant human SIRT1 = target: T1, recombinant human SIRT1 (Homo sapiens, UniProt Q96EB6); assay: SIRT1 fluorescent deacetylation assay (p53-382 acetylated peptide substrate); assay type: biochemical
T1 sequence (Q96EB6 1-747): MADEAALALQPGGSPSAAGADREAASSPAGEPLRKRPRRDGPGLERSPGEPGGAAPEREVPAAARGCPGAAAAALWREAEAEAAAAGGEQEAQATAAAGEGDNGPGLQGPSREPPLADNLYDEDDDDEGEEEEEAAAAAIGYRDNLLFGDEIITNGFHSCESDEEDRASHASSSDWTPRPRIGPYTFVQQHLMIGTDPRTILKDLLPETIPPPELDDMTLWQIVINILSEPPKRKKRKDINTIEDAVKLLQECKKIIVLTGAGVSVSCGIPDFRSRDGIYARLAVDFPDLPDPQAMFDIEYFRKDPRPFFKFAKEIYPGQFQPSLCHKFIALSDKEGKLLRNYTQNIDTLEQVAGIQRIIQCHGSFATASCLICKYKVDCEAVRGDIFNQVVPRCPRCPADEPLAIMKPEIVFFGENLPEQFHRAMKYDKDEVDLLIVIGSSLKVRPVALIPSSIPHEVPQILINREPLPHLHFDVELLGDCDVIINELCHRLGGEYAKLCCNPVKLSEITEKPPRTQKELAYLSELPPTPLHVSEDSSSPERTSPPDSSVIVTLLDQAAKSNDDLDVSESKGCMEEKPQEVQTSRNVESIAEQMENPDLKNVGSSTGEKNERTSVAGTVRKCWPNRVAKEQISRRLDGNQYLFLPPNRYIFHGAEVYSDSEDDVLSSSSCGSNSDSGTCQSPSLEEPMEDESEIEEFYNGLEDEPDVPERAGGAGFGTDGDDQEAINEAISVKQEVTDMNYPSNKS

C. elegans (strain N2) = assay: C. elegans lifespan; assay type: in vivo; details: N2 worms, untreated = 100%
Experimental: Thus, the presence of resveratrol in the growth media of C. elegans extends their lifespan.
The effect of some of these compounds on lifespan was determined in yeast, C. elegans and D. melanogaster, as described above.

HeLa S3 cells = assay: Cellular deacetylase assay with Fluor de Lys substrate; assay type: cell-based, human; details: 1 μM TSA
Experimental: FdL (200 μM) is added to growth media and cells are incubated for 1-3 hours to allow FdL to enter the cells and the lysine-deacetylated product (deAc-FdL) to accumulate intracellularly. Cells are lysed with detergent in the presence of 1 μM TSA and 1 mM nicotinamide. Addition of the non-cell-permeable Developer (BIOMOL) releases a fluorophor, specifically from deAc-FdL. […] Cells were grown adherently in DMEM/10% FCS and treated for 1 hour with 200 μM FdL, 1 μM TSA and either vehicle (0.5% final DMSO, Control) or 500 μM of the indicated compound. Intracellular accumulation of deAc-FdL was then determined as described briefly in FIG. 4a. […] Lysates were prepared and analyzed by Western blot as in FIG. 4c. […] Lysates were prepared and analyzed as above.
FIG. 6a through 6c show intracellular deacetylation activity measured with a cell-permeable, fluorogenic HDAC and sirtuin substrate. […] Intracellular and medium levels of deacetylated substrate (deAc-FdL) were determined according to the manufacturer's instructions (HDAC assay kit, BIOMOL). […]
Themed compound libraries (BIOMOL) were used for primary and secondary screening. […] HeLa cells were grown and the cellular deacetylation assays were performed and read, as above, but in full-volume 96-well microplates (Corning Costar 3595). […]

[2] = Table 9, resveratrol analogs, 100 μM, 25 μM NAD+, 25 μM p53-382 acetylated peptide
[3] = Supplementary Table 1, stilbenes and chalcones, 100 μM, 25 μM NAD+, 25 μM p53-382 acetylated peptide
[4] = Table 1, 100 μM compound, 25 μM NAD+, 25 μM p53-382 acetylated peptide
[5] = Supplementary Table 2, flavones part I, 100 μM, 25 μM NAD+, 25 μM p53-382 acetylated peptide

Compound: CC(=O)Oc1ccc(/C=C/c2cc(O)cc(O)c2)cc1 [BML-221, 3,5-Dihydroxy-4′-acetoxy-trans-stilbene]
half-life [1]: 21 days
% change in C. elegans lifespan relative to untreated organisms (C. elegans (strain N2); 100/500 μM, E. coli as food): >100% (ongoing)
% change in yeast replicative lifespan relative to untreated organisms (S. cerevisiae): 165%
Ratio to Control Rate Mean ± SE (recombinant human SIRT1; Table 11, resveratrol analogs, 100 μM, 25 μM NAD+, 25 μM p53-382 acetylated peptide): 3.05 ± 0.54

Compound: COc1ccc(/C=C/c2cc(O)cc(O)c2)cc1 [BML-233, 3,5-Dihydroxy-4′-methoxy-trans-stilbene]
% change in C. elegans lifespan relative to untreated organisms (C. elegans (strain N2); (10) printed in the cell): 70% (10)
% change in C. elegans lifespan relative to untreated organisms (C. elegans (strain N2); (500) printed in the cell): 50% (500)
Ratio to Control Rate Mean ± SE (recombinant human SIRT1): 5.48 ± 0.33

Compound: O=C(/C=C/c1ccc(O)c(O)c1)c1ccc(O)cc1O [Butein, 3,4,2′,4′-Tetrahydroxychalcone]
TSA-insensitive cellular deacetylation signal (HeLa S3 cells; 500 μM compound, 200 μM FdL, 1 hour): no effect
Effect on maximum lifespan (S. cerevisiae): significantly increased
Increase of average lifespan (S. cerevisiae): 31%
Ratio to Control Rate Mean ± SE (recombinant human SIRT1; [3]): 8.53 ± 0.89
Ratio to Control Rate Mean ± SE (recombinant human SIRT1; [4]): 8.53 ± 0.89

Compound: O=c1c(O)c(-c2ccc(O)c(O)c2)oc2cc(O)ccc12 [Fisetin, 3,7,3′,4′-Tetrahydroxyflavone]
Effect on maximum lifespan (S. cerevisiae): significantly increased
Increase of average lifespan (S. cerevisiae): 55%
Ratio to Control Rate Mean ± SE (recombinant human SIRT1; [5]): 6.58
Ratio to Control Rate Mean ± SE (recombinant human SIRT1; [4]): 6.58 ± 0.69

Compound: Oc1cc(O)cc(/C=C/c2ccc(O)c(O)c2)c1 [Piceatannol, 3,5,3′,4′-Tetrahydroxy-trans-stilbene]
Effect on lifespan (S. cerevisiae): no significant effect
Ratio to Control Rate Mean ± SE (recombinant human SIRT1; [3]): 7.90 ± 0.50
Ratio to Control Rate Mean ± SE (recombinant human SIRT1; [4]): 7.90 ± 0.50
Stimulation of SIRT1 activity (recombinant human SIRT1; initial library screen): eight-fold

Compound: Oc1cc(O)cc(/C=C/c2ccccc2)c1 [Pinosylvin, 3,5-Dihydroxy-trans-stilbene]
% change in yeast replicative lifespan relative to untreated organisms (S. cerevisiae): 114%
Ratio to Control Rate Mean ± SE (recombinant human SIRT1; [2]): 9.95 ± 0.45

Compound: O=c1c(O)c(-c2ccc(O)c(O)c2)oc2cc(O)cc(O)c12 [Quercetin, 3,5,7,3′,4′-Pentahydroxyflavone]
Effect on lifespan (S. cerevisiae): no significant effect
Ratio to Control Rate Mean ± SE (recombinant human SIRT1; [5]): 4.59 ± 0.47
Ratio to Control Rate Mean ± SE (recombinant human SIRT1; [4]): 4.59 ± 0.47

Compound: Cc1ccc(NC(=O)c2cccc(N(C)C)c2)cc1NC(=O)c1ccc(O)cc1 [ZM 336372, reference compound]
Ratio to Control Rate Mean ± SE (recombinant human SIRT1; Supplementary Table 8, compound at 100 μM, 25 μM NAD+, 25 μM p53-382 acetylated peptide): 3.5 ± 1.1

Compound: C(=C/c1ccccc1)/c1ccccc1 [cis-Stilbene]
Ratio to Control Rate Mean ± SE (recombinant human SIRT1; [3]): 1.14 ± 0.29

Compound: C(=C\c1ccccc1)/c1ccccc1 [trans-Stilbene]
Ratio to Control Rate Mean ± SE (recombinant human SIRT1; [3]): 1.48 ± 0.15

Compound: CC(/C=C/C(=O)NO)=C\[C@@H](C)C(=O)c1ccc(N(C)C)cc1 [trichostatin A, reference compound]
Signal insensitive to trichostatin A (HeLa S3 cells; HeLa cells growing adherently): 5-10%

Compound: Camptothecin [reference compound]
Ratio to Control Rate Mean ± SE (recombinant human SIRT1; Supplementary Table 8, compound at 10 μM, 25 μM NAD+, 25 μM p53-382 acetylated peptide): 2.92 ± 0.41

Now from value to compound, other results behind:

half-life at 50 µM [1]: 2.75 days
Ratio to Control Rate Mean ± SE (recombinant human SIRT1; [2]): 8.20 ± 0.69
Compound: Oc1cc(O)cc(/C=C/c2ccc(F)cc2)c1 [BML-212, 3,5-Dihydroxy-4′-fluoro-trans-stilbene]
% change in yeast replicative lifespan relative to untreated organisms (S. cerevisiae): 98%

Ratio to Control Rate Mean ± SE (recombinant human SIRT1; [2]): 10.6 ± 0.4
Compound: Oc1cc(O)cc(/C=C/c2ccc(Cl)cc2)c1 [BML-217, 3,5-Dihydroxy-4′-chloro-trans-stilbene]
% change in yeast replicative lifespan relative to untreated organisms (S. cerevisiae): 90%
